Residue numbers refer to the chain shown, from its start. Read-outs that look alike come from different tables or passages of the source.
Assays:
RET(KD: 658-1114 G810R) = target: T1, RET(KD: 658-1114 G810R) (Homo sapiens, UniProt P07949, G810R); test: HiBiT-Degradation, RET G810R degradation assay (Nano-Glo HiBiT Lytic), 293T.165 cells; assay type: cell-based; details: for Emax / DC50: 6.0 hours; for Emax: read-out: 293T.165 RET(KD: 658-1114 G810R) 6.0 hours (Emax); for DC50: read-out: 293T.165 RET(KD: 658-1114 G810R) 6.0 hours (DC50)
T1 construct: 658-1114; expressed in transfected cells; host or cells: 293T.165 (293T cells, generated in-house)
T1 sequence (P07949 658-1114 G810R): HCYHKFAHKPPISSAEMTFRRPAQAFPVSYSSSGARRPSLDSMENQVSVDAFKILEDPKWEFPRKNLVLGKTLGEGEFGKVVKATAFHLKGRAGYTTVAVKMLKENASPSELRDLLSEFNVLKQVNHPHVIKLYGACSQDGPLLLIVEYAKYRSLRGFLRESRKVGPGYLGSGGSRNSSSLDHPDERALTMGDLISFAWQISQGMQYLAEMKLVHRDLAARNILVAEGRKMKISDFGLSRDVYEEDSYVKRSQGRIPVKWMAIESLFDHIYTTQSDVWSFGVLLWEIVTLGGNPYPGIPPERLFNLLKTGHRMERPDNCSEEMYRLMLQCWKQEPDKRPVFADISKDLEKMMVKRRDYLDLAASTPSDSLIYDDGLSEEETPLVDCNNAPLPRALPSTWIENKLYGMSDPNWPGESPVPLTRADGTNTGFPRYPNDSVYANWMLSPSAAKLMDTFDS
How it was run: (§1)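 6 h treatment, 293T.144 (WT) / 293T.165 (G810R) cells ectopically expressing HiBiT-fused RET KD; 11-pt half-log dilution, top 10 μM, n=2. Nano-Glo HiBiT lytic detection, luminescence. Output: DC50, Emax (% protein remaining).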

RET (658-1114) = target: T2, RET (658-1114) (Homo sapiens, UniProt P07949); test: HiBiT-Degradation, RET wild-type degradation assay (Nano-Glo HiBiT Lytic), 293T.144 cells; assay type: cell-based; details: for Emax / DC50: 6.0 hours; for Emax: read-out: 293T.144 RET (658-1114) 6.0 hours (Emax); for DC50: read-out: 293T.144 RET (658-1114) 6.0 hours (DC50)
T2 construct: 658-1114; expressed in transfected cells; host or cells: 293T.144 (293T cells, generated in-house)
T2 sequence (P07949 658-1114): T1 sequence (P07949 658-1114 G810R) with R153G
How it was run: as §1

[1] = half-maximal degradation concentration

Row | SMILES | 293T.165 RET(KD: 658-1114 G810R) 6.0 hours (IP) [nM] (RET(KD: 658-1114 G810R)) | Emax (RET(KD: 658-1114 G810R); % remaining protein) [%] | DC50 (RET(KD: 658-1114 G810R); [1]) [µM] | 293T.144 RET (658-1114) 6.0 hours (IP) [nM] (RET (658-1114)) | Emax (RET (658-1114); % remaining protein) [%] | DC50 (RET (658-1114); [1]) [µM] | 293T.165 RET(KD: 658-1114 G810R) 6.0 hours (Emax) (RET(KD: 658-1114 G810R); % remaining protein) | 293T.165 RET(KD: 658-1114 G810R) 6.0 hours (DC50) [nM] (RET(KD: 658-1114 G810R); [1]) | 293T.144 RET (658-1114) 6.0 hours (Emax) (RET (658-1114); % remaining protein) | 293T.165 RET(KD: 658-1114 G810R) 6.0 hours (Emax) (RET(KD: 658-1114 G810R); HiBiT-Degradation) | 293T.165 RET(KD: 658-1114 G810R) 6.0 hours (IP) [nM] (RET(KD: 658-1114 G810R); HiBiT-Degradation) | DC50 (RET(KD: 658-1114 G810R); HiBiT-Degradation) [µM] | 293T.144 RET (658-1114) 6.0 hours (IP) [nM] (RET (658-1114); HiBiT-Degradation) | DC50 (RET (658-1114); HiBiT-Degradation) [µM] | Emax (RET (658-1114); HiBiT-Degradation) [%]
1 | N#Cc1cnn2cc(-c3cnn(C4CCN(C(=O)CC5(O)CCN(c6ccc(NC7CCC(=O)NC7=O)cc6F)CC5)CC4)c3)nc(-c3ccc(N4CCCN(Cc5ccccc5)CC4)nc3)c12 (stereo not drawn) [Compound 108, 4-[6-(4-benzyl-1,4-diazepan-1-yl)-3-pyridyl]-6-[1-[1-[2-[1-[4-[(2,6-dioxo-3-piperidyl)amino]-2-fluoro-phenyl]-4-hydroxy-4-piperidyl]acetyl]-4-piperidyl]pyrazol-4-yl]pyrazolo[1,5-a]pyrazine-3-carbonitrile] | ++++ (<50 nM = ++++) | < 30 | < 0.05 | ++++ (<50 nM = ++++) | < 30 | < 0.05 |  |  |  |  |  |  |  |  | 
2 | CCC1(C(=O)NC(C)C)CCN(c2ccc(-c3nc(-c4cnn(C5CCC(CCN6CCC(c7ccc(NC8CCC(=O)NC8=O)cc7F)CC6)CC5)c4)cn4ncc(C#N)c34)cn2)CC1 (stereo not drawn) [Compound 181, 1-(5-(3-Cyano-6-(1-((1r, 4r)-4-(2-(4-(4-((2,6-dioxopiperidin-3-yl)amino)-2-fluorophenyl)piperidin-1-yl)ethyl)cyclohexyl)-1H-pyrazol-4-yl)pyrazolo[1,5-a]pyrazin-4-yl)pyridin-2-yl)-4-ethyl-N-isopropylpiperidine-4-carboxamide] | ++++ (<50 nM = ++++) |  |  | ++++ (<50 nM = ++++) |  | < 0.05 | ++++ (<30% = ++++) | ++++ (<50 nM = ++++) | ++++ (<30% = ++++) |  |  |  |  |  | 
3 | CCC1(C(=O)NC(C)(C)C)CCN(c2ccc(-c3nc(-c4cnn([C@H]5CC[C@H](N6CCC(c7ccc(N[C@H]8CCC(=O)NC8=O)cc7F)CC6)CC5)c4)cn4ncc(C#N)c34)cn2)CC1 (single isomer, unassigned) [Compound 145] | ++++ (<50 nM = ++++) | < 30 | < 0.05 | ++++ (<50 nM = ++++) | < 30 | < 0.05 |  |  |  |  |  |  |  |  | 
4 | N#Cc1cnn2cc(-c3ccc(N4CCN(C(=O)CN5CCC(c6ccc(NC7CCC(=O)NC7=O)cc6F)CC5)CC4)cc3)nc(-c3ccc(N4CCN(C(=O)Cc5ccc(F)cn5)CC4)nc3)c12 (stereo not drawn) [Compound 52, 6-[4-[4-[2-[4-[4-[(2,6-dioxo-3-piperidyl)amino]-2-fluoro-phenyl]-1-piperidyl]acetyl]piperazin-1-yl]phenyl]-4-[6-[4-[2-(5-fluoro-2-pyridyl)acetyl]piperazin-1-yl]-3-pyridyl]pyrazolo[1,5-a]pyrazine-3-carbonitrile] |  | < 50 | < 0.1 |  |  |  |  |  |  | +++ (<50% = +++) | ++++ (< 50 nM = ++++) | < 0.1 | ++++ (< 50 nM = ++++) | < 0.05 | < 30
5 | CCC1(C(=O)NC(C)C)CCN(c2ccc(-c3cc(-c4cnn(C5CCN(C(=O)CN6CCC(c7ccc(NC8CCC(=O)NC8=O)cc7F)CC6)CC5)c4)cn4ncc(C#N)c34)cc2)CC1 (stereo not drawn) [Compound 58, 1-[4-[3-cyano-6-[1-[1-[2-[4-[4-[(2,6-dioxo-3-piperidyl)amino]-2-fluoro-phenyl]-1-piperidyl]acetyl]-4-piperidyl]pyrazol-4-yl]pyrazolo[1,5-a]pyridin-4-yl]phenyl]-4-ethyl-N-isopropyl-piperidine-4-carboxamide] |  | < 50 | < 0.05 |  |  |  |  |  |  | +++ (<50% = +++) | ++++ (< 50 nM = ++++) | < 0.05 | ++++ (< 50 nM = ++++) | < 0.05 | < 30
6 | COc1ccc(CN2C3COCC2CN(c2ccc(-c4nc(-c5cnn(C6CCC(N7CCC(c8ccc(NC9CCC(=O)NC9=O)cc8Cl)CC7)CC6)c5)cn5ncc(C#N)c45)cn2)C3)cn1 (stereo not drawn) [Compound 206, 6-[1-[4-[4-[2-chloro-4-[(2,6-dioxo-3-piperidyl)amino]phenyl]-1-piperidyl]cyclohexyl]pyrazol-4-yl]-4-[6-[9-[(6-methoxy-3-pyridyl)methyl]-3-oxa-7,9-diazabicyclo[3.3.1]nonan-7-yl]-3-pyridyl]pyrazolo[1,5-a]pyrazine-3-carbonitrile] | ++++ (<50 nM = ++++) | < 30 | < 0.1 | ++++ (<50 nM = ++++) | < 30 | < 0.05 |  |  |  |  |  |  |  |  | 
7 | CCC1(C(=O)NC2CCC2)CCN(c2ccc(-c3nc(-c4cnn([C@H]5CC[C@H](N6CCC(c7ccc(N[C@H]8CCC(=O)NC8=O)cc7Cl)CC6)CC5)c4)cn4ncc(C#N)c34)cn2)CC1 (single isomer, unassigned) [Compound 130] | ++++ (<50 nM = ++++) | < 30 | < 0.05 | ++++ (<50 nM = ++++) | < 30 | < 0.05 |  |  |  |  |  |  |  |  | 
8 | CC(C)NC(=O)C1(C)CCN(c2ccc(-c3cc(-c4cnn(C5CCN(C(=O)CN6CCC(c7ccc(NC8CCC(=O)NC8=O)cc7F)CC6)CC5)c4)cn4ncc(C#N)c34)cn2)CC1 (stereo not drawn) [Compound 2, 1-(5-(3-Cyano-6-(1-(1-(2-(4-(4-((2,6-dioxopiperidin-3-yl)amino)-2-fluorophenyl)piperidin-1-yl)acetyl)piperidin-4-yl)-1H-pyrazol-4-yl)pyrazolo[1,5-a]pyridin-4-yl)pyridin-2-yl)-N-isopropyl-4-methylpiperidine-4-carboxamide] |  | < 50 | < 0.05 |  |  |  |  |  |  | +++ (<50% = +++) | ++++ (< 50 nM = ++++) | < 0.05 | ++++ (< 50 nM = ++++) | < 0.05 | < 30
9 | CC(C)NC(=O)C1(C)CCN(c2ccc(-c3cc(-c4cnn(C5CCC6(CC5)CN(C(=O)CN5CCC(c7ccc(NC8CCC(=O)NC8=O)cc7)CC5)C6)c4)cn4ncc(C#N)c34)cn2)CC1 (stereo not drawn) [Compound 196, 1-(5-(3-cyano-6-(1-(2-(2-(4-(4-((2,6-dioxopiperidin-3-yl)amino)phenyl)piperidin-1-yl)acetyl)-2-azaspiro[3.5]nonan-7-yl)-1H-pyrazol-4-yl)pyrazolo[1,5-a]pyridin-4-yl)pyridin-2-yl)-N-isopropyl-4-methylpiperidine-4-carboxamide] | ++++ (<50 nM = ++++) | < 30 | < 0.1 | ++++ (<50 nM = ++++) | < 30 | < 0.05 |  |  |  |  |  |  |  |  | 
10 | CCC1(C(=O)NC2CCC2)CCN(c2ccc(-c3nc(-c4cnn([C@H]5CC[C@H](N6CCN(c7cc(OC)c(N[C@H]8CCC(=O)NC8=O)cc7F)CC6)CC5)c4)cn4ncc(C#N)c34)cn2)CC1 (single isomer, unassigned) [Compound 134] | ++++ (<50 nM = ++++) | < 30 | < 0.05 | ++++ (<50 nM = ++++) | < 30 | < 0.05 |  |  |  |  |  |  |  |  | 
11 | CCC1(C(=O)NC(C)C)CCN(c2ccc(-c3nc(-c4cnn(C5CN(C(=O)CC6(O)CCN(c7ccc(NC8CCC(=O)NC8=O)cc7F)CC6)C5)c4)cn4ncc(C#N)c34)cn2)CC1 (stereo not drawn) [Compound 184, 1-[5-[3-cyano-6-[1-[1-[2-[1-[4-[(2,6-dioxo-3-piperidyl)amino]-2-fluoro-phenyl]-4-hydroxy-4-piperidyl]acetyl]azetidin-3-yl]pyrazol-4-yl]pyrazolo[1,5-a]pyrazin-4-yl]-2-pyridyl]-4-ethyl-N-isopropyl-piperidine-4-carboxamide] | ++++ (<50 nM = ++++) | < 30 | < 0.05 | ++++ (<50 nM = ++++) | < 30 | < 0.05 |  |  |  |  |  |  |  |  | 

Reference: patent US12661410B2, “Compounds for targeted degradation of RET” (C4 Therapeutics, Inc., priority 2020, dated 2026)
